In patent US11590076B2, “Cryogel scaffold capable of controlling degree of degradation and soft bio-integrated device in which drug modulating immunosuppressive action in solid microenvironment is loaded in same scaffold” (Research & Business Foundation Sungkyunkwan University, priority 2017, dated 2023):

Columns and labels:
[1] = In vitro drug release behavior of soft bio-integrated device; format: physicochemical; details: within one week, PBS (pH 7.4), 37° C., FIG. 31A
Description: A scaffold in which gemcitabine, rhodamine-attached poly(I:C)/nanogel, and a 4T1 cell lysate were loaded was added to 1 mL of PBS (pH 7.4), and stored at 37° C. and 90 rpm. Every selected time interval, the original culture medium was obtained and exchanged with a fresh medium. An amount of gemcitabine released from the scaffold was measured using absorbance (275 nm, UV-1800; Shimadzu, Kyoto, Japan), the rhodamine-attached poly(I:C) was measured according to the protocol of the 5'[…] Nucleic Acid Labeling System (Vector Laboratories), and the 4T1 cell lysate was measured using the BCA assay method (Pierce Biotechnology). Specifically, a fluorescence spectrometer (PerkinElmer) was used to detect and analyze fluorescence at 552 nm (excitation) and 575 nm (emission) from the poly(I:C)/nanogel attached to rhodamine released from the scaffold.

BMDCs = assay: Activation of BMDCs using gemcitabine-treated 4T1 breast cancer cell line; format: cell-based, mouse; details: gemcitabine-treated breast cancer cell line versus control, FIG. 31D
Description: (§1) In addition, the activation of BMDCs using a gemcitabine-treated 4T1 breast cancer cell line was confirmed. The 4T1 cells were cultured with 1 μg/mL gemcitabine in a 6-well plate at a density of 2×10^6 cells/well. The gemcitabine-induced apoptosis of the 4T1 breast cancer cells was assessed according to the protocol of the FITC Annexin V Apoptosis kit (BD Biosciences). After 24 hours, a supernatant was collected, and then incubated with BMDCs. A BMDC activation marker was analyzed using an Accuri™ flow cytometer. Antibodies used herein were FITC-anti-CD11c and APC-anti-CD80 (BD Pharmingen).

[2] = test system: myeloid-derived-suppressor cells (MDSCs); assay: Gemcitabine-induced apoptosis of MDSCs (FITC Annexin V); format: cell-based, mouse; details: various gemcitabine concentrations, FIG. 31B
Description: Gemcitabine induces apoptosis of myeloid-derived-suppressor cells (MDSCs) in vitro. The spleen was extracted from a mouse harboring 4T1 tumors for 28 days, the extracted spleen was ground, and RBCs were removed therefrom using an RBC lysis buffer. The RBC-removed spleen cells were re-dispersed in a MACS buffer (PBS, 0.5% BSA, […]), MDSCs were isolated using an MDSC isolation kit (Miltenyi Biotec). The isolated myeloid-derived-suppressor cells were seeded in a 6-well plate at a density of 2×10^6 cells/well, and incubated with various concentrations of gemcitabine. The gemcitabine-induced apoptosis of the MDSCs was assessed according to the protocol of an FITC Annexin V Apoptosis kit (BD Biosciences).

[3] = test system: 4T1 breast cancer cell line; assay: Gemcitabine-induced apoptosis of 4T1 breast cancer cells (FITC Annexin V); format: cell-based; details: change in gemcitabine concentration, FIG. 31C
Description: as §1, with “The 4T1 cells were cultured with 1 μg/mL gemcitabine in a 6-well plate at a density of 2×10^6 cells/well.” left out

4T1 tumor = assay: In vivo anticancer effect after tumor resection and implantation of soft bio-integrated device; design: species or system BALB/c mice; details: day 7 and day 14, FIG. 38A
Description: When 1×10^6 4T1 cells were injected and the size of a growing tumor became 300 mm^3 on day 14 after injection, the tumor was partially resected. A mouse was anesthetized using 2,2,2-tribromoethanol. The surgical site was sterilized with 70% ethanol, and 90% of the tumor was resected so that 10% of the tumor remained. A scaffold was implanted near the remaining part of the tumor.
On day 7 and day 14 after tumor removal and implantation of a soft bio-integrated device, a mouse was sacrificed, and a tumor, the spleen and a lymph node of the sacrificed mouse were isolated to measure weights thereof.
The tumor and lymph node were cut into small pieces, dispersed in DMEM containing collagenase D, stored for 1 hour at 37° C. and 90 rpm, and then filtered through a 70-μm strainer. The spleen was physically disrupted, and then RBCs were removed using an RBC lysis buffer. The tumor and spleen dispersed as single cells by the above-described method were analyzed using APC-anti-CD11b and PE-anti-Gr1 antibodies to confirm myeloid-derived-suppressor cells and using APC-anti-CD3, PE-anti-CD4 and FITC-CD8 antibodies to confirm T cells. All antibodies were purchased from BD Pharmingen.
Moreover, to confirm tumor metastasis, on day 14 after the tumor removal, the mouse was sacrificed to confirm metastasis. […]

accumulation amount of gemcitabine released from the scaffold [1]: approximately 90%
Structure (SMILES): Nc1ccn([C@@H]2O[C@H](CO)[C@@H](O)C2(F)F)c(=O)n1 [gemcitabine]
cell maturity of dendritic cells (BMDCs): increased
dead cell percentage of MDSCs [2]: increased as the gemcitabine concentration increased
dead cell percentage in breast cancer cell line (4T1) [3]: increased as the gemcitabine concentration increased
MDSC proportion in the tumor and the spleen (4T1 tumor): reduced
